Test results: patent publication US12077503B2, “Substituted cyclic amides and their use as herbicides” (FMC CORPORATION, priority 2015, dated 2024)

Key:
Format in all cases: in vivo
[1] = test system: redroot pigweed (Amaranthus retroflexus); assay: Test G Post-Emergence Protocol; details: Amaranthus retroflexus, post-emergence, 312 h; for pest or weed control at 15.625 g/ha: 15.625 g ai/ha, evaluated after 13 days (100=total damage to plant; 0=no damage to plant), read-out: Pigweed, Redroot damage rating; for pest or weed control at 62.5 g/ha: 62.5 g ai/ha, read-out: Pigweed, Redroot damage rating (100=total damage to plant; 0=no damage to plant); for pest or weed control at 62.5 g/ha / pest or weed control at 250 g/ha: evaluated after 13 days; for pest or weed control at 250 g/ha: 250 g ai/ha, read-out: damage to plant, Pigweed, Redroot (100=total damage to plant; 0=no damage to plant)
In short: (§1)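 Pot-grown seedlings, 8 days old, raised in a glasshouse at 24/16 °C day/night with 14 h light and 65% humidity, were sprayed post-emergence with test compound in acetone/water (50:50) plus 0.5% Tween 20 at 15.625, 62.5 or 250 g/ha. Damage was scored visually 13 days later on a 0–100 scale (100 = total damage).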

[2] = test system: barnyardgrass (Echinochloa crus-galli); assay: Test G Post-Emergence Protocol; details: Echinochloa crus-galli, post-emergence, 312 h; for pest or weed control at 15.625 g/ha: 15.625 g ai/ha, evaluated after 13 days (100=total damage to plant; 0=no damage to plant), read-out: Barnyardgrass damage rating; for pest or weed control at 62.5 g/ha: 62.5 g ai/ha, read-out: Barnyardgrass damage rating (100=total damage to plant; 0=no damage to plant); for pest or weed control at 62.5 g/ha / pest or weed control at 250 g/ha: evaluated after 13 days; for pest or weed control at 250 g/ha: 250 g ai/ha, read-out: damage to plant, Barnyardgrass (100=total damage to plant; 0=no damage to plant)
In short: as §1

[3] = test system: giant foxtail (Setaria faberi); assay: Test G Post-Emergence Protocol; details: Setaria faberi, post-emergence, 312 h; for pest or weed control at 15.625 g/ha: 15.625 g ai/ha, evaluated after 13 days (100=total damage to plant; 0=no damage to plant), read-out: Foxtail, Giant damage rating; for pest or weed control at 62.5 g/ha: 62.5 g ai/ha, read-out: Foxtail, Giant damage rating (100=total damage to plant; 0=no damage to plant); for pest or weed control at 62.5 g/ha / pest or weed control at 250 g/ha: evaluated after 13 days; for pest or weed control at 250 g/ha: 250 g ai/ha, read-out: damage to plant, Foxtail, Giant (100=total damage to plant; 0=no damage to plant)
In short: as §1

[4] = test system: velvetleaf (Abutilon theophrasti); assay: Test G Post-Emergence Protocol; details: Abutilon theophrasti, post-emergence, 312 h; for pest or weed control at 15.625 g/ha: 15.625 g ai/ha, evaluated after 13 days (100=total damage to plant; 0=no damage to plant), read-out: Velvetleaf damage rating; for pest or weed control at 62.5 g/ha: 62.5 g ai/ha, read-out: Velvetleaf damage rating (100=total damage to plant; 0=no damage to plant); for pest or weed control at 62.5 g/ha / pest or weed control at 250 g/ha: evaluated after 13 days; for pest or weed control at 250 g/ha: 250 g ai/ha, read-out: damage to plant, Velvetleaf (100=total damage to plant; 0=no damage to plant)
In short: as §1

[5] = test system: corn (Zea mays); assay: Test G Post-Emergence Protocol; details: Zea mays, post-emergence, 312 h; for plant injury at 15.625 g/ha: 15.625 g ai/ha, evaluated after 13 days (100=total damage to plant; 0=no damage to plant), read-out: Corn damage rating; for plant injury at 62.5 g/ha: 62.5 g ai/ha, read-out: Corn damage rating (100=total damage to plant; 0=no damage to plant); for plant injury at 62.5 g/ha / plant injury at 250 g/ha: evaluated after 13 days; for plant injury at 250 g/ha: 250 g ai/ha, read-out: damage to plant, Corn (100=total damage to plant; 0=no damage to plant)
In short: as §1

[6] = test system: ivy-leaved morning glory (Ipomoea hederacea); assay: Test G Post-Emergence Protocol; details: Ipomoea, post-emergence, 312 h; for pest or weed control at 15.625 g/ha: 15.625 g ai/ha, evaluated after 13 days (100=total damage to plant; 0=no damage to plant), read-out: Morningglory, Ivy-leaved damage rating; for pest or weed control at 62.5 g/ha: 62.5 g ai/ha, read-out: Morningglory, Ivy-leaved damage rating (100=total damage to plant; 0=no damage to plant); for pest or weed control at 62.5 g/ha / pest or weed control at 250 g/ha: evaluated after 13 days; for pest or weed control at 250 g/ha: 250 g ai/ha, read-out: damage to plant, Morningglory, Ivy-leaved (100=total damage to plant; 0=no damage to plant)
In short: as §1

[7] = test system: redroot pigweed (Amaranthus retroflexus); assay: Test G Pre-Emergence Protocol; details: Amaranthus retroflexus, pre-emergence, 312 h, evaluated after 13 days; for pest or weed control at 15.625 g/ha: 15.625 g ai/ha; for pest or weed control at 15.625 g/ha / pest or weed control at 250 g/ha: read-out: Pigweed, Redroot damage rating (100=total damage to plant; 0=no damage to plant); for pest or weed control at 62.5 g/ha: 62.5 g ai/ha, 100=total damage to plant, 0=no damage to plant, read-out: plant damage rating, Pigweed, Redroot; for pest or weed control at 250 g/ha: 250 g ai/ha
In short: (§2)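 Glasshouse pre-emergence test: soil-sown seeds, sprayed after 1 d at 15.625, 62.5 or 250 g/ha. Conditions 24/16° C day/night, 14 h light, 65% humidity, watering twice daily. Rating 13 d post-spray (100 = total damage).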

[8] = test system: barnyardgrass (Echinochloa crus-galli); assay: Test G Pre-Emergence Protocol; details: Echinochloa crus-galli, pre-emergence, 312 h, evaluated after 13 days; for pest or weed control at 15.625 g/ha: 15.625 g ai/ha, read-out: Barnyard grass damage rating (100=total damage to plant; 0=no damage to plant); for pest or weed control at 62.5 g/ha: 62.5 g ai/ha, 100=total damage to plant, 0=no damage to plant, read-out: plant damage rating, Barnyardgrass; for pest or weed control at 250 g/ha: 250 g ai/ha, read-out: Barnyardgrass damage rating (100=total damage to plant; 0=no damage to plant)
In short: as §2

[9] = test system: giant foxtail (Setaria faberi); assay: Test G Pre-Emergence Protocol; details: Setaria faberi, pre-emergence, 312 h, evaluated after 13 days; for pest or weed control at 15.625 g/ha: 15.625 g ai/ha; for pest or weed control at 15.625 g/ha / pest or weed control at 250 g/ha: read-out: Foxtail, Giant damage rating (100=total damage to plant; 0=no damage to plant); for pest or weed control at 62.5 g/ha: 62.5 g ai/ha, 100=total damage to plant, 0=no damage to plant, read-out: plant damage rating, Foxtail, Giant; for pest or weed control at 250 g/ha: 250 g ai/ha
In short: as §2

[10] = test system: velvetleaf (Abutilon theophrasti); assay: Test G Pre-Emergence Protocol; details: Abutilon theophrasti, pre-emergence, 312 h, evaluated after 13 days; for pest or weed control at 15.625 g/ha: 15.625 g ai/ha; for pest or weed control at 15.625 g/ha / pest or weed control at 250 g/ha: read-out: Velvetleaf damage rating (100=total damage to plant; 0=no damage to plant); for pest or weed control at 62.5 g/ha: 62.5 g ai/ha, 100=total damage to plant, 0=no damage to plant, read-out: plant damage rating, Velvetleaf; for pest or weed control at 250 g/ha: 250 g ai/ha
In short: as §2

[11] = test system: corn (Zea mays); assay: Test G Pre-Emergence Protocol; details: Zea mays, pre-emergence, 312 h, evaluated after 13 days; for plant injury at 15.625 g/ha: 15.625 g ai/ha; for plant injury at 15.625 g/ha / plant injury at 250 g/ha: read-out: Corn damage rating (100=total damage to plant; 0=no damage to plant); for plant injury at 62.5 g/ha: 62.5 g ai/ha, 100=total damage to plant, 0=no damage to plant, read-out: plant damage rating, Corn; for plant injury at 250 g/ha: 250 g ai/ha
In short: as §2

[12] = test system: ivy-leaved morning glory (Ipomoea hederacea); assay: Test G Pre-Emergence Protocol; details: Ipomoea, pre-emergence, 312 h, evaluated after 13 days; for pest or weed control at 15.625 g/ha: 15.625 g ai/ha, read-out: Morning-glory, Ivy-leaved damage rating (100=total damage to plant; 0=no damage to plant); for pest or weed control at 62.5 g/ha: 62.5 g ai/ha, 100=total damage to plant, 0=no damage to plant, read-out: plant damage rating, Morningglory, Ivy-leaved; for pest or weed control at 250 g/ha: 250 g ai/ha, read-out: Morningglory, Ivy-leaved damage rating (100=total damage to plant; 0=no damage to plant)
In short: as §2

CN1C[C@@H](c2ccc(C(F)(F)F)cc2)[C@H](C(=O)Nc2cc(C(F)(F)F)n(C)n2)C1=O (racemic) [Compound 1512]
0%: pest or weed control at 15.625 g/ha [1] | pest or weed control at 62.5 g/ha [1] | pest or weed control at 250 g/ha [1] | pest or weed control at 15.625 g/ha [2] | pest or weed control at 62.5 g/ha [2] | pest or weed control at 250 g/ha [2] | pest or weed control at 15.625 g/ha [3] | pest or weed control at 62.5 g/ha [3] | pest or weed control at 250 g/ha [3] | pest or weed control at 15.625 g/ha [4] | pest or weed control at 62.5 g/ha [4] | pest or weed control at 250 g/ha [4] | plant injury at 15.625 g/ha [5] | plant injury at 62.5 g/ha [5] | plant injury at 250 g/ha [5] | pest or weed control at 15.625 g/ha [6] | pest or weed control at 62.5 g/ha [6] | pest or weed control at 250 g/ha [6] | pest or weed control at 15.625 g/ha [7] | pest or weed control at 62.5 g/ha [7] | pest or weed control at 250 g/ha [7] | pest or weed control at 15.625 g/ha [8] | pest or weed control at 62.5 g/ha [8] | pest or weed control at 250 g/ha [8] | pest or weed control at 15.625 g/ha [9] | pest or weed control at 62.5 g/ha [9] | pest or weed control at 250 g/ha [9] | pest or weed control at 15.625 g/ha [10] | pest or weed control at 62.5 g/ha [10] | pest or weed control at 250 g/ha [10] | plant injury at 15.625 g/ha [11] | plant injury at 62.5 g/ha [11] | plant injury at 250 g/ha [11] | pest or weed control at 15.625 g/ha [12] | pest or weed control at 62.5 g/ha [12] | pest or weed control at 250 g/ha [12]

CN1C[C@@H](c2ccc(C(F)(F)F)cc2)[C@H](C(=O)Nc2cc(F)nc(F)c2)C1=O (racemic) [Compound 1515]
0%: pest or weed control at 15.625 g/ha [1] | pest or weed control at 62.5 g/ha [1] | pest or weed control at 250 g/ha [1] | pest or weed control at 15.625 g/ha [2] | pest or weed control at 62.5 g/ha [2] | pest or weed control at 250 g/ha [2] | pest or weed control at 15.625 g/ha [3] | pest or weed control at 62.5 g/ha [3] | pest or weed control at 250 g/ha [3] | pest or weed control at 15.625 g/ha [4] | pest or weed control at 62.5 g/ha [4] | pest or weed control at 250 g/ha [4] | plant injury at 15.625 g/ha [5] | plant injury at 62.5 g/ha [5] | plant injury at 250 g/ha [5] | pest or weed control at 15.625 g/ha [6] | pest or weed control at 62.5 g/ha [6] | pest or weed control at 250 g/ha [6] | pest or weed control at 15.625 g/ha [7] | pest or weed control at 62.5 g/ha [7] | pest or weed control at 250 g/ha [7] | pest or weed control at 15.625 g/ha [8] | pest or weed control at 62.5 g/ha [8] | pest or weed control at 250 g/ha [8] | pest or weed control at 15.625 g/ha [9] | pest or weed control at 62.5 g/ha [9] | pest or weed control at 250 g/ha [9] | pest or weed control at 15.625 g/ha [10] | pest or weed control at 62.5 g/ha [10] | pest or weed control at 250 g/ha [10] | plant injury at 15.625 g/ha [11] | plant injury at 62.5 g/ha [11] | plant injury at 250 g/ha [11] | pest or weed control at 15.625 g/ha [12] | pest or weed control at 62.5 g/ha [12] | pest or weed control at 250 g/ha [12]
